Experimental data: US9775844B2, “Heterocyclic compounds and uses thereof” (Infinity Pharmaceuticals, Inc., priority 2014, dated 2017)

How the values were obtained:
CT26 colon cancer = CT26 colon cancer model; format: in vivo, mouse
[1] = tested on: tumor-associated myeloid cells in LLC tumor brei; test: Flow cytometry of tumor-associated myeloid cells, LLC tumor brei model; format: in vivo, mouse
Experimental: Flow cytometry was performed to obtain a more extensive cellular subset analysis. In particular, the study examined T cell vs. Myeloid cells, Myeloid cell subsets, Regulatory vs. effector T cells, and Tumor markers vs. WBC (e.g., PD-L1 expression on tumor).
Different populations of tumor-associated myeloid cells can be identified by flow cytometry, e.g., monocytic immature myeloid cells (iMC),Granulocytic iMCs/Neutrophils, Tumor Associated Macrophages (TAMs), and Granulocytic MDSCs. The different populations, and panels for detecting MDSCs, are described in Cancer Discovery 2011; 1:54-67. Tumors may vary in their myeloid cell composition.

GSH Adduct Formation = format: in vitro ADME
[2] = Pharmacokinetics in rat, oral; format: in vivo
Excerpt: Compound BB's oral exposure is high in rat, dog and monkey. Good oral bioavailability and low clearance in rodent and non-rodent animal species results in high oral exposure.

[3] = Target organ toxicity (TOT) study, 10 days oral; format: in vivo
Experimental: A target organ toxicity (TOT) study was performed in rats. […] This study assessed clinical observations/mortality, body weights, clinical pathology, toxicokinetics, and histopathology of select tissues. The tissues studied were: Adrenal gland, Bone marrow (femur), Brain, Small Intestine (including GALT), Heart, Large Intestine, Kidney, Stomach, Liver, Pancreas, Spleen, Testis, and Thymus. Doses were selected based on repeat-dose tolerability study, PK and plasma protein binding, and cellular IC50s for PI3K isoforms.

LLC tumor brei = LLC tumor brei model with or without cyclophosphamide (tumor growth, FACS); format: in vivo, mouse
Experimental: In this experiment, treatment began when tumors reached approx. 150 mm^3—around day 12. Caliper and xenogen images were monitored. Treatment groups n=13-15/group. […] Samples for FACs analysis were collected on day 23 post implant. Using FACS, cells were assayed for the level of CD11b and Gr-1.

[4] = tested on: LPS induced neutrophil influx in bronchoalveolar lavage fluid; test: LPS-induced neutrophilia, oral administration; format: in vivo; conditions: rat, p.o., 4 hours post-LPS challenge, dose dependent
Experimental: This study also includes assessment of the exposure to the compounds in plasma and lung tissues.
Ref C is budesonide p.o. The compound was administered p.o. and about 1 hour later, LPS was administered intra-tracheally and plasma was collected. After about 5 hours, plasma and bronchoalveolar lavage samples were collected.

Oral exposure in the dog = format: in vivo
Oral exposure in the rat = format: in vivo
[5] = Pharmacokinetics in rodent and non-rodent animal species; format: in vivo
Excerpt: These properties indicate the compound's suitability for in vivo administration.

bone marrow macrophages = test: RANKL driven differentiation of osteoclasts from bone marrow macrophages; format: cell-based
[6] = Mouse pharmacokinetics, oral single and repeat dose; format: in vivo; conditions: female mice, 2, 7.5, 15 mg/kg PO
Experimental: Animals were weighed daily prior to dosing. […] On subsequent dosing days, the animals' condition was noted prior to dosing; the animals were observed within 4 hours of dosing, and at the end of the day.
Samples were collected at pre-dose 0.25, 0.5, 1, 2, 4, 6 and 24 h following the first dose on day 1 and pre-dose (trough), 0.25, 0.5, 1, 2, 4, 6 and 24 h following the final dose on day 3 Animals received a single oral dose daily for 3 consecutive days. Blood was collected by retro-orbital bleeding for all time points on day 1. All other blood sampling was collected by a cardiac puncture. Blood was collected into K2EDTA tubes and placed on wet ice. Within 15 min of collection, the sample was centrifuged at 10,000 rpm at 4° C. for 10 min in a bench top centrifuge and the plasma transferred to a new microcentrifuge tube.
A similar study was carried out using Compound 88. […] Below is a table that details the results for Compound 88: […]

phospho-AKT in T cells = test: Ex vivo whole blood stimulation of phospho-AKT in T cells of LLC-bearing mice; conditions: LLC-bearing mice treated with compound
[7] = tested on: collagen induced arthritis; test: Rat collagen induced arthritis (CIA) model; format: in vivo
GL-261 = GL-261 glioma model with or without temozolomide; format: in vivo, mouse
Experimental: TMZ was dosed IP 1×/day for 7 days.
Animals: C57 Albino mice (male) from Jackson Labs, n=80. Parameters Evaluated:
In life: Mice were dosed QD with Compound BB. Temozolomide was dosed QD IP, for 7 days. Tumor measurements and bodyweights were taken 2×/week, but caliper and xenogen measurements.
End point analysis: Tumors were cut in half. One half was cut in half again with 1/2 fixed in 10% NBF the other was frozen in OCT for frozen sections. The remaining half was processed to single cell suspention and evaluated by FACS.
PD satilite group—8 mice from the TMZ treated mice and 8 mice from the vehicle treated mice were sacrificed on day 7 post treatment. Tumors were processed to single cell suspention and evaluated by FACS.

[8] = Oral exposure in the monkey; format: in vivo
[9] = Mouse pharmacokinetics, oral single and repeat dose; conditions: in vivo, 10 mg/kg in NMP solution, read-out: Mouse PK AUClast @ 10 mg/kg in NMP solution

Structure (SMILES): C[C@H](NC(=O)c1c(N)nn2cccnc12)c1cc2cccc(C#Cc3cnn(C)c3)c2c(=O)n1-c1ccccc1 [Compound BB]
- MDSC expansion after cyclophosphamide treatment (CT26 colon cancer; CT26 colon cancer model): decreased
- monocytic iMCs (CT26 colon cancer; CT26 subcutaneous tumors): decreased
- number of infiltrating TAMs ([1]; FIG. 38A): decreased
- CD206 staining (M2 polarized suppressive macrophages) ([1]; FIG. 39): reduced
- GSH Adduct Formation (GSH Adduct Formation): Neg
- oral exposure (plasma concentrations within 24 hours) ([2]; rat, 7.5 mg/kg oral): high
- dose-exposure proportionality (AUC 0-last) ([2]; rats, oral 10, 25, and 100 mg/kg): good dose-exposure proportionality
- decrease in body weights compared to vehicle ([3]; high dose animals (50 mg/kg/day)): 5-8%
- histopathology, thymus ([3]; males at ≧7.5 mg/kg/day, females at 50 mg/kg/day): minimal/mild lymphoid depletion
- histopathology, spleen (marginal zone and PALS) ([3]; primarily at doses ≧20 mg/kg/day): minimal/mild lymphoid depletion
- clinical pathology ([3]; primarily in 20 and 50 mg/kg/day groups): minimal changes in neutrophils, lymphocytes, and fibrinogen
- histopathology, gross changes ([3]; rats, oral, 10 days): no significant gross changes
- tolerability ([3]; rats, oral, 10 days, 1 to 50 mg/kg/day): well-tolerated
- mortality and clinical signs ([3]; rats, oral, 10 days, any dose level): No mortality or clinical signs
- tumor growth, LLC tumor brei model (LLC tumor brei; Compound BB 15 mg/kg QD PO, cyclophosphamide 50 mg/kg EOD IP): reduced tumor growth
- CD206 population in LLC tumors (FACS) (LLC tumor brei; Compound BB PO QD alone or with cyclophosphamide): decrease in the CD206 population
- neutrophil in bronchoalveolar lavage fluid (BALF) [4]: reduced neutrophil
- oral exposure (Oral exposure in the dog): high
- oral exposure (Oral exposure in the rat): high
- clearance ([5]; in vivo): low clearance
- half-life in vivo ([5]; in vivo): long half-life
- volume of distribution ([5]; in vivo): high volume of distribution
- oral bioavailability ([5]; rodent and non-rodent animal species): high oral bioavailability
- RANKL driven differentiation of osteoclasts (bone marrow macrophages): prevents
- stability in serum (unbound plasma concentration time course) [6]: good stability in serum
- ex vivo whole blood stimulation of phospho-AKT in T cells (phospho-AKT in T cells): inhibits
- bone resorption score reduction ([7]; 0.5 mg/kg): 25%
- cartilage damage score reduction ([7]; 0.5 mg/kg): 28%
- inflammation score reduction ([7]; 0.5 mg/kg): 27%
- pannus score reduction ([7]; 0.5 mg/kg): 28%
- periosteal bone formation score reduction ([7]; 0.5 mg/kg): 52%
- periosteal bone widths reduction ([7]; 0.5 mg/kg): 47%
- reduction in summed scores ([7]; 0.5 mg/kg, non-significant): 31%
- reduction of scored parameters ([7]; 0.5 mg/kg, non-significant): 27-52%
- bone resorption score reduction ([7]; 1.5 mg/kg): 44%
- cartilage damage score reduction ([7]; 1.5 mg/kg): 45%
- inflammation score reduction ([7]; 1.5 mg/kg): 36%
- pannus score reduction ([7]; 1.5 mg/kg): 44%
- periosteal bone formation score reduction ([7]; 1.5 mg/kg): 52%
- periosteal bone widths reduction ([7]; 1.5 mg/kg): 50%
- reduction in summed scores ([7]; 1.5 mg/kg, significant): 42%
- bone resorption score reduction ([7]; 5 mg/kg): 65%
- cartilage damage score reduction ([7]; 5 mg/kg): 59%
- inflammation score reduction ([7]; 5 mg/kg): 57%
- pannus score reduction ([7]; 5 mg/kg): 71%
- periosteal bone formation score reduction ([7]; 5 mg/kg): 82%
- periosteal bone widths reduction ([7]; 5 mg/kg): 82%
- reduction in summed scores ([7]; 5 mg/kg, significant): 64%
- reductions in all scores ([7]; 5 mg/kg, significant): 57-82%
- mean ankle diameter ([7]; day 9 to day 17, FIG. 1): therapeutic effects
- tumor volume, GL-261, compared to vehicle (GL-261; 15 mg/kg QD PO following TMZ @ 1 mg/kg): significant reduction in tumor volume
- tumor volume, GL-261, compared to vehicle (GL-261; treated from the start of treatment, 15 mg/kg QD PO): significant reduction in tumor volume
- oral exposure [8]: high
- AUC(0-t) [9]: 83700 ng·h/mL
